Columns and labels:
[1] = tested on: HeLa; conditions: bulk resorufin, single well, 28.5 h, 10 µM, Bulk resorufin fluorescence
[2] = in vitro; conditions: human, hela cells, % viability

SMILES | % viability [1] [%] | viability at 28.5 h, 10 µM [2] [%]
CCC(Sc1nc(C)c(Cc2ccccc2)c(=O)[nH]1)C(=O)O (centres unmarked) [CBK270058] | 91.7 | 91.2
Cc1nnc2c(N3CCNCC3)nc3ccccc3n12 [CBK270224] | 75.4 | 89
O=C1CCCc2c1nc(-c1ccccc1Cl)n2O [CBK271948] | 82.2 | 89.5
CCCC(=O)N1CCC[C@@H](Cn2nc(-c3cccs3)ccc2=O)C1 [CBK282245] | 98 | 88.5
c1cnc2c(c1)cc([C@@H]1CCCO1)n2CCN1CCCCC1 [CBK282273] | 109 | 101
CCN(CC)C(=O)Cn1c([C@@H]2CCCO2)cc2cccnc21 [CBK282283] | 90.4 | 105
C=CCNC(=O)[C@H]1C=CCN1S(=O)(=O)c1ccc(F)cc1 [CBK282320] | 89.7 | 83.5
O=C(NC1CCCCC1)[C@H]1C=CCN1C(=O)c1ccc(F)cc1 [CBK282324] | 86.4 | 93.9
CC(C)[C@H](Cn1nc(C2CC2)ccc1=O)NC(=O)Cc1cccs1 [CBK282368] | 88.6 | 79.7
CC[C@@H](Cn1ncc2ccccc2c1=O)NC(=O)C1CC1 [CBK282385] | 91.3 | 88.3
O=C(CN1C(=O)[C@H]2CCCN2C(=O)c2ccccc21)N1CCCCC1 [CBK282435] | 80.4 | 90.6
C=CCNC(=O)Cn1c([C@@H]2CCCO2)cc2cccnc21 [CBK282873] | 110 | 98.2
C[C@H](Cn1c(C(F)(F)F)cc2cccnc21)NC(=O)c1ccco1 [CBK282933] | 94.6 | 91.5
CCC(=O)N1CCC[C@H](Cn2nc(-c3cccs3)ccc2=O)C1 [CBK283046] | 100 | 95.3
C=CCNC(=O)[C@@H]1C=CCN1C(=O)c1ccccc1F [CBK283052] | 98.9 | 105
CCn1cc(CN2C[C@@H]3CCCN3C[C@@H]2CCSC)cn1 [CBK283181] | 106 | 86.9
O=C(NC1CCCCC1)[C@H]1C=CCN1C(=O)c1ccccc1F [CBK283334] | 98 | 85.6
O=C(C1CCC1)N1CCC[C@H]1Cn1nc(-c2cccs2)ccc1=O [CBK284251] | 78.8 | 80.9
O=C(NC[C@H]1CCCN(C(=O)c2cccnc2)C1)c1cccs1 [CBK284264] | 90.3 | 81.6
CS(=O)(=O)N1CC=C[C@H]1C(=O)NCc1ccc(F)cc1 [CBK284270] | 87.2 | 97.6
CC(C)(C)OC(=O)N1CCC[C@H]1C(=O)c1nccs1 [CBK284282] | 95.5 | 108
CC(C)(C)OC(=O)N1CCC[C@@H]1C(=O)c1cccs1 [CBK284289] | 90.7 | 100
COc1ccc(NC(=O)[C@@H]2C=CCN2C(=O)c2ccco2)cc1 [CBK284292] | 77.2 | 88.5
CC[C@H](Cn1ncc2ccccc2c1=O)NC(=O)c1cccs1 [CBK284301] | 90.5 | 96.7
CC[C@H](Cn1ncc2ccccc2c1=O)NC(=O)Cc1ccsc1 [CBK284306] | 88.7 | 98.4

SMILES | % viability [1] [%] | viability at 28.5 h, 10 µM [2] [%]
CC(C)[C@@H](Cn1nc(C2CC2)ccc1=O)NC(=O)C1CC1 [CBK284309] | 85.9 | 86.1
C[C@@H](Cn1nnc2ccccc21)NC(=O)C1CC1 [CBK284312] | 81.5 | 88.5
C=CCNC(=O)[C@@H]1C=CCN1C(=O)c1ccc(OC)cc1 [CBK284317] | 76.8 | 95.4
O=C(NCCc1ccccc1)[C@@H]1C=CCN1C(=O)c1cccs1 [CBK284320] | 92.9 | 95.2
C[C@@H](Cn1c(=O)oc2ccccc21)NC(=O)Cc1c[nH]c2ccccc12 [CBK284534] | 88.7 | 85.7
C[C@@H](Cn1c(=O)oc2ccccc21)NC(=O)Cc1ccsc1 [CBK284535] | 84.7 | 96.9
C[C@H](Cn1nc2c(cc1=O)CCCCC2)NC(=O)c1ccco1 [CBK284544] | 88.3 | 84.9
C[C@H](Cn1nc2c(cc1=O)CCCCC2)NC(=O)c1ccccc1F [CBK284547] | 91.5 | 89.5
C[C@@H]1CN2CCCC2CN1Cc1cccc2cccnc12 (some centres unmarked) [CBK284551] | 87.8 | 82.4
C[C@@H]1CN2C[C@H](O)CC2CN1Cc1ccc2c3ccccc3n(C)c2c1 (some centres unmarked) [CBK284554] | 102 | 91.5
C[C@H](Cn1nc2c(cc1=O)CCCCC2)NC(=O)c1ccc(F)cc1 [CBK284557] | 93.4 | 98.4
C[C@H](Cn1nc2c(cc1=O)CCCCC2)NC(=O)c1cccc(F)c1 [CBK284558] | 90 | 85.8
C[C@H]1CN2C[C@H](O)CC2CN1Cc1cccc(Oc2ccccc2)c1 (some centres unmarked) [CBK284566] | 96.2 | 93.6
Cn1cc(C(=O)N2C3CCC(C3)[C@@H]2COc2ccc(F)cc2)cn1 (some centres unmarked) [CBK284605] | 112 | 93.7
O[C@@H]1C[C@H]2CN(Cc3ccsc3)[C@@H](Cc3ccccc3)CN2C1 [CBK285376] | 95.8 | 91.9
COC(=O)c1ccc(CN2CC3CCCN3C[C@@H]2C)cc1 (some centres unmarked) [CBK285403] | 103 | 111
C[C@H]1CN2C[C@H](O)CC2CN1Cc1ccc(Cl)c(Cl)c1 (some centres unmarked) [CBK285404] | 94.3 | 111
C[C@@H]1CN2CCCC2CN1Cc1ccc(N(C)C)cc1 (some centres unmarked) [CBK285406] | 102 | 101
Cc1ccc(CN2CC3CCCN3C[C@H]2C)o1 (some centres unmarked) [CBK285407] | 104 | 87.1
C[C@@H]1CN2CCCC2CN1Cc1ccc2ccccc2n1 (some centres unmarked) [CBK285408] | 104 | 101
COc1ccccc1CN1CC2CCCN2C[C@H]1C (some centres unmarked) [CBK285409] | 106 | 90.6
C[C@@H]1CN2CCCC2CN1Cc1ccc(Br)o1 (some centres unmarked) [CBK285410] | 101 | 99.7
COc1ccc(CN2CC3CCCN3C[C@H]2C)cc1 (some centres unmarked) [CBK285412] | 103 | 111
C[C@H]1CN2CCCC2CN1Cc1cccc(F)c1 (some centres unmarked) [CBK285425] | 104 | 97.7
CCCn1ncc(CN2C[C@@H]3CCCN3C[C@@H]2CCSC)c1C [CBK285426] | 107 | 104

SMILES | % viability [1] [%] | viability at 28.5 h, 10 µM [2] [%]
CCCCn1cc(CN2CC3CCCN3C[C@H]2C)c(C)n1 (some centres unmarked) [CBK285433] | 98.7 | 92.9
C[C@H]1CN2CCCC2CN1Cc1ccc(CN(C)C)cc1 (some centres unmarked) [CBK285438] | 101 | 88.9
C=Cn1ncc(CN2C[C@@H]3CCCN3C[C@H]2CCSC)c1C [CBK285440] | 101 | 99.4
C[C@@H]1CN2CCCC2CN1CC1CC=CCC1 (some centres unmarked) [CBK285441] | 99.9 | 99.1
COc1cccc(CN2CC3CCCN3C[C@H]2C)c1 (some centres unmarked) [CBK285442] | 105 | 113
C[C@H]1CN2CCCC2CN1Cc1ccccc1F (some centres unmarked) [CBK285450] | 103 | 96.5
C[C@H]1CN2CCCC2CN1Cc1c(F)cccc1F (some centres unmarked) [CBK285451] | 102 | 89.8
C[C@@H]1CN2CCCC2CN1Cc1ccc(F)cc1F (some centres unmarked) [CBK285455] | 97.8 | 106
CSCC[C@@H]1CN2CCC[C@H]2CN1Cc1cn(C)nc1C [CBK285462] | 107 | 95.5
CC(C)C(=O)N1CCC[C@H]1Cn1nc(-c2cccs2)ccc1=O [CBK285469] | 96.1 | 97.8
O=C(NCCc1ccccc1)[C@H]1C=CCN1C(=O)c1ccccc1F [CBK285471] | 104 | 94
C[C@H](Cn1c(=O)oc2ccccc21)NC(=O)CC1c2ccccc2Oc2ccccc21 [CBK286201] | 96.8 | 90.1
O=C(CN1C(=O)[C@@H]2CCCN2C(=O)c2ccccc21)NCc1ccccc1 [CBK286318] | 89.5 | 98.6
O=C(CN1C(=O)[C@H]2CCCN2C(=O)c2ccccc21)Nc1ccccc1-c1ccccc1 [CBK286321] | 94.1 | 93.9
O=C(CN1C(=O)[C@@H]2CCCN2C(=O)c2ccccc21)NCCc1ccccc1 [CBK286402] | 90 | 87.1
CC(C)(CC(=O)O)CC(=O)Nc1cccc(CCc2ccncc2)c1 [CBK286989] | 84.8 | 99.3
CCCCn1nc(C)c(-c2cc(C(=O)O)[nH]n2)c1C [CBK287047] | 84.5 | 95
O=C(O)CCCCCN1C(=O)CC(c2ccc(Cl)cc2)CC1=O [CBK287245] | 102 | 104
CC1Cc2ccccc2N1c1ncnc2nc[nH]c12 (centres unmarked) [CBK287388] | 66.9 | 66.8
O=c1[nH]nc2ccc(S(=O)(=O)N3CCCC3)cn12 [CBK288033] | 91.1 | 80.5
O=C(c1cnc2[nH][nH]c(=O)c2c1)c1ccccc1O [CBK288082] | 110 | 90.5
Nc1nc(=O)c2cnc3ccc(Cl)cc3c2s1 [CBK288175] | 79.6 | 84.6
CNC(=S)N1CCN(c2nsc3ccccc23)CC1 [CBK288515] | 83.2 | 83.5
